Data published in publication PMC6274350, “Design, Synthesis, and Cytotoxicity of 5-Fluoro-2-methyl-6-(4-aryl-piperazin-1-yl) Benzoxazoles” (Molecules, 2016).

tested on: not listed separately; assay: CellTiter-Glo luminescent cell viability (cytotoxicity) assay on hepatocytes; type: cell-based, human; settings: human; Liver cells, hepatocytes (HepaRG); 0.1 µM; 24 h; vs DMSO vehicle
Experimental: (§1) The cytotoxicity of prepared benzoxazoles (7a–j) and intermediates (6a–j and 9) were measured by applying the CellTiter-Glo® luminescent cell proliferation assay (G755A, Promega, Madison, WI, USA). This method permits the determination of viable cells numbers in the culture based on quantitation of the ATP present, which denotes the presence of metabolically active cells. In vitro cytotoxicity analysis was overall performed following the protocol as described in “Guidance Document on Using in Vitro Data to Estimate in Vivo Starting Doses for Acute Toxicity Based on Recommendations” [18]. Human A-549 cells are human lung cancer epithelial cells, which were chosen as the tumor model, whereas the HepaRG™ cell line is a classic hepatic cell line that retains many characteristics of primary human hepatocytes. HepaRG™ cells are terminally differentiated.
(§2) Human cell cultures: Hepatocytes (HepaRG^TM cells) were obtained from Life Technologies, and were cultivated in William’s E Medium (Gibco, Life Technologies, Waltham, MA, USA) and supplemented with 1x GlutaMAX™ plus 1x HepaRG^TM General Purpose Medium Supplement in 25-cm^2 or 75-cm^2 flasks (TPP, Trasadingen, Switzerland) at 37 °C and 5% CO2. Lung cancer epithelial cells A-549 were propagated in Epilife Medium (Gibco, Life Technologies; MEPICF) and combined with CaCl2 and 1x-growth-supplement containing penicillin and streptomycin (Gibco, Life Technologies). For sub-culturing, cells were split at a ratio of 1:4 to 1:8. For cryopreservation, cells were frozen in 10% DMSO in liquid nitrogen.
(§3) Human cytotoxicity assay: Human hepatocytes or human lung carcinoma cells were seeded into sterile black clear-bottomed polystyrene Corning® CellBind® 96-well plates (Munich, Germany) at a density of 20,000 cells/well after calculating cell numbers from trypsinized samples in a classical Neubauer Improved hemocytometer (VWR, Munich, Germany). The cells were grown for 24 h at 37 °C in a 5% CO2 atmosphere in Epilife medium (keratinocytes) or William′s E medium (hepatocytes). After a 24-h recovery period, media were removed from the wells by aspiration. The cells were then immediately exposed to the respective test compounds or reference antibiotics (prepared in advance in 100 µL of the same media) for 24 h 37 °C with 5% CO2. The concentration tested ranged from 0.1 µM to 500 µM (0.1 µM, 1 µM, 10 µM, 50 µM, 100 µM, 250 µM, and 500 µM) and was formulated as a 100× concentrated stock each, resulting in a final constant DMSO concentration of 1% per 100-µL sample volume. Test series were each performed in triplicate, and additionally included a vehicle reference (DMSO only) plus another internal control for evaluating overall assay performance. Additionally, cells were visually examined under a light microscope for any morphological abnormalities relative to the untreated cells. Subsequently, cell viability, as an indicator of potential cytotoxicity, was measured by applying the CellTiter-Glo® luminescent cell proliferation assay (G755A, Promega, Madison, WI, USA). This method permits the determination of the number of viable cells in culture based on quantitation of the ATP present, which denotes the presence of metabolically active cells. To this end, 100 µL (equal to the volume of culture medium) of the kit-provided CellTiter-Glo® reagent (reconstituted by transferring the thawed CellTiter-Glo® buffer to the lyophilized enzyme and substrate mixture) was directly added to each well with a repetitive dispensing pipette. The contents were then mixed for 2 min at room temperature on an orbital minishaker (IKA® MS3 digital, Staufen, Germany) at 450 rpm to induce efficient cell lysis, and then further incubated for 10 min at room temperature for stabilization of the resultant luminescent signal. […]

Point of comparison: `Cc1nc2cc(F)c(N3CCN(c4ccccc4O)CC3)cc2o1` [Compound 7f, 2-[4-(5-Fluoro-2-methyl-benzooxazol-6-yl)-piperazin-1-yl]-phenol], viability at 24 h, 0.1 µM 106%. Against it:
- Cc1nc2cc(F)c(N3CCN(c4ccccc4F)CC3)cc2o1 [Compound 7g, 5-Fluoro-6-(4-(2-fluorophenyl)-piperazin-1-yl)-2-methylbenzo[d]oxazole] — lower, 96%
- Cc1nc2cc(F)c(N3CCN(c4ccc(O)cc4)CC3)cc2o1 [Compound 7c, 4-[4-(5-Fluoro-2-methyl-benzooxazol-6-yl)-piperazin-1-yl]-phenol] — lower, 98%

same assay, conditions: human; Liver cells, hepatocytes (HepaRG); 1 µM; 24 h; vs DMSO vehicle

Point of comparison: `Cc1nc2cc(F)c(N3CCN(c4ccccc4F)CC3)cc2o1` [Compound 7g, 5-Fluoro-6-(4-(2-fluorophenyl)-piperazin-1-yl)-2-methylbenzo[d]oxazole], viability at 24 h, 1 µM 106%. Against it:
- Cc1nc2cc(F)c(N3CCN(c4ccccc4O)CC3)cc2o1 [Compound 7f, 2-[4-(5-Fluoro-2-methyl-benzooxazol-6-yl)-piperazin-1-yl]-phenol] — lower, 97%
- Cc1nc2cc(F)c(N3CCN(c4ccc(O)cc4)CC3)cc2o1 [Compound 7c, 4-[4-(5-Fluoro-2-methyl-benzooxazol-6-yl)-piperazin-1-yl]-phenol] — higher, 107%

same assay, conditions: human; Liver cells, hepatocytes (HepaRG); 10 µM; 24 h; vs DMSO vehicle

Point of comparison: `Cc1nc2cc(F)c(N3CCN(c4ccc(O)cc4)CC3)cc2o1` [Compound 7c, 4-[4-(5-Fluoro-2-methyl-benzooxazol-6-yl)-piperazin-1-yl]-phenol], viability at 24 h, 10 µM 101%. Against it:
- Cc1nc2cc(F)c(N3CCN(c4ccccc4F)CC3)cc2o1 [Compound 7g, 5-Fluoro-6-(4-(2-fluorophenyl)-piperazin-1-yl)-2-methylbenzo[d]oxazole] — lower, 87%
- Cc1nc2cc(F)c(N3CCN(c4ccccc4O)CC3)cc2o1 [Compound 7f, 2-[4-(5-Fluoro-2-methyl-benzooxazol-6-yl)-piperazin-1-yl]-phenol] — lower, 86%

same assay, conditions: human; Liver cells, hepatocytes (HepaRG); 50 µM; 24 h; vs DMSO vehicle

Point of comparison: `Cc1nc2cc(F)c(N3CCN(c4ccc(O)cc4)CC3)cc2o1` [Compound 7c, 4-[4-(5-Fluoro-2-methyl-benzooxazol-6-yl)-piperazin-1-yl]-phenol], viability at 24 h, 50 µM 93%. Against it:
- Cc1nc2cc(F)c(N3CCN(c4ccccc4O)CC3)cc2o1 [Compound 7f, 2-[4-(5-Fluoro-2-methyl-benzooxazol-6-yl)-piperazin-1-yl]-phenol] — lower, 59%

same assay, conditions: human; Liver cells, hepatocytes (HepaRG); 100 µM; 24 h; vs DMSO vehicle

Compound `Cc1nc2cc(F)c(N3CCN(c4ccccc4O)CC3)cc2o1` [Compound 7f, 2-[4-(5-Fluoro-2-methyl-benzooxazol-6-yl)-piperazin-1-yl]-phenol] has a viability at 24 h, 100 µM of 60%.

same assay, conditions: human; Liver cells, hepatocytes (HepaRG); 250 µM; 24 h; vs DMSO vehicle

Work on `Cc1nc2cc(F)c(N3CCN(c4ccccc4O)CC3)cc2o1` [Compound 7f, 2-[4-(5-Fluoro-2-methyl-benzooxazol-6-yl)-piperazin-1-yl]-phenol] yielded a viability at 24 h, 250 µM of 53%.

same assay, conditions: human; Liver cells, hepatocytes (HepaRG); 500 µM; 24 h; vs DMSO vehicle

Work on `Cc1nc2cc(F)c(N3CCN(c4ccccc4O)CC3)cc2o1` [Compound 7f, 2-[4-(5-Fluoro-2-methyl-benzooxazol-6-yl)-piperazin-1-yl]-phenol] yielded a viability at 24 h, 500 µM of 54%.

tested on: not given; assay: not given; settings: not given

First: Cc1nc2cc(F)c(N3CCN(c4ccccc4F)CC3)cc2o1 [Compound 7g, 5-Fluoro-6-(4-(2-fluorophenyl)-piperazin-1-yl)-2-methylbenzo[d]oxazole]
Second: Cc1nc2cc(F)c(N3CCN(c4ccccc4O)CC3)cc2o1 [Compound 7f, 2-[4-(5-Fluoro-2-methyl-benzooxazol-6-yl)-piperazin-1-yl]-phenol]
The melting point of the first is lower: 157 to 158 °C for the first, 172 to 173 °C for the second.

For `Cc1nc2cc(F)c(N3CCN(c4ccc(O)cc4)CC3)cc2o1` [Compound 7c, 4-[4-(5-Fluoro-2-methyl-benzooxazol-6-yl)-piperazin-1-yl]-phenol], the melting point was 188 to 191 °C.

tested on: not listed separately; assay: Visible solubility / precipitation of test compounds in cell-culture media; type: physicochemical; settings: 50 µM; no conclusion on cytotoxicity possible
Experimental: Since the majority of test compound solutions with concentrations above 50 µM precipitated in cell-culture media, we performed cytotoxicity assays for healthy and cancer cells at 50 µM.

With `Cc1nc2cc(F)c(N3CCN(c4ccccc4F)CC3)cc2o1` [Compound 7g, 5-Fluoro-6-(4-(2-fluorophenyl)-piperazin-1-yl)-2-methylbenzo[d]oxazole] the “Precipitation in cell-culture media” value was “precipitation problem”.

same assay, conditions: cell-culture media; 0.1-500 µM

For `Cc1nc2cc(F)c(N3CCN(c4ccccc4O)CC3)cc2o1` [Compound 7f, 2-[4-(5-Fluoro-2-methyl-benzooxazol-6-yl)-piperazin-1-yl]-phenol], the “Solubility at test concentrations” value was “completely soluble at all concentrations”.

tested on: A-549 lung carcinoma cells; assay: CellTiter-Glo luminescent cell viability (cytotoxicity) assay on lung cancer cells; type: cell-based, human; settings: Homo sapiens, A549; Lung cancer cells (A-549); 0.1 µM; 24 h; vs DMSO vehicle
Experimental: as §1, §2, §3

Point of comparison: `Cc1nc2cc(F)c(N3CCN(c4ccccc4O)CC3)cc2o1` [Compound 7f, 2-[4-(5-Fluoro-2-methyl-benzooxazol-6-yl)-piperazin-1-yl]-phenol], viability at 0.1 µM 103%. Against it:
- Cc1nc2cc(F)c(N3CCN(c4ccccc4F)CC3)cc2o1 [Compound 7g, 5-Fluoro-6-(4-(2-fluorophenyl)-piperazin-1-yl)-2-methylbenzo[d]oxazole] — lower, 96%
- Cc1nc2cc(F)c(N3CCN(c4ccc(O)cc4)CC3)cc2o1 [Compound 7c, 4-[4-(5-Fluoro-2-methyl-benzooxazol-6-yl)-piperazin-1-yl]-phenol] — lower, 92%

same assay, conditions: Homo sapiens, A549; Lung cancer cells (A-549); 1 µM; 24 h; vs DMSO vehicle

Point of comparison: `Cc1nc2cc(F)c(N3CCN(c4ccccc4O)CC3)cc2o1` [Compound 7f, 2-[4-(5-Fluoro-2-methyl-benzooxazol-6-yl)-piperazin-1-yl]-phenol], viability at 1 µM 99%. Against it:
- Cc1nc2cc(F)c(N3CCN(c4ccccc4F)CC3)cc2o1 [Compound 7g, 5-Fluoro-6-(4-(2-fluorophenyl)-piperazin-1-yl)-2-methylbenzo[d]oxazole] — lower, 92%
- Cc1nc2cc(F)c(N3CCN(c4ccc(O)cc4)CC3)cc2o1 [Compound 7c, 4-[4-(5-Fluoro-2-methyl-benzooxazol-6-yl)-piperazin-1-yl]-phenol] — lower, 97%

same assay, conditions: Homo sapiens, A549; Lung cancer cells (A-549); 10 µM; 24 h; vs DMSO vehicle

Point of comparison: `Cc1nc2cc(F)c(N3CCN(c4ccc(O)cc4)CC3)cc2o1` [Compound 7c, 4-[4-(5-Fluoro-2-methyl-benzooxazol-6-yl)-piperazin-1-yl]-phenol], viability at 10 µM 101%. Against it:
- Cc1nc2cc(F)c(N3CCN(c4ccccc4F)CC3)cc2o1 [Compound 7g, 5-Fluoro-6-(4-(2-fluorophenyl)-piperazin-1-yl)-2-methylbenzo[d]oxazole] — lower, 92%
- Cc1nc2cc(F)c(N3CCN(c4ccccc4O)CC3)cc2o1 [Compound 7f, 2-[4-(5-Fluoro-2-methyl-benzooxazol-6-yl)-piperazin-1-yl]-phenol] — lower, 91%

same assay, conditions: Homo sapiens, A549; Lung cancer cells (A-549); 50 µM; 24 h; vs DMSO vehicle

Point of comparison: `Cc1nc2cc(F)c(N3CCN(c4ccc(O)cc4)CC3)cc2o1` [Compound 7c, 4-[4-(5-Fluoro-2-methyl-benzooxazol-6-yl)-piperazin-1-yl]-phenol], viability at 50 µM 90%. Against it:
- Cc1nc2cc(F)c(N3CCN(c4ccccc4F)CC3)cc2o1 [Compound 7g, 5-Fluoro-6-(4-(2-fluorophenyl)-piperazin-1-yl)-2-methylbenzo[d]oxazole] — lower, 73%
- Cc1nc2cc(F)c(N3CCN(c4ccccc4O)CC3)cc2o1 [Compound 7f, 2-[4-(5-Fluoro-2-methyl-benzooxazol-6-yl)-piperazin-1-yl]-phenol] — higher, 91%

same assay, conditions: Homo sapiens, A549; Lung cancer cells (A-549); 100 µM; 24 h; vs DMSO vehicle

Point of comparison: `Cc1nc2cc(F)c(N3CCN(c4ccc(O)cc4)CC3)cc2o1` [Compound 7c, 4-[4-(5-Fluoro-2-methyl-benzooxazol-6-yl)-piperazin-1-yl]-phenol], viability at 100 µM 83%. Against it:
- Cc1nc2cc(F)c(N3CCN(c4ccccc4F)CC3)cc2o1 [Compound 7g, 5-Fluoro-6-(4-(2-fluorophenyl)-piperazin-1-yl)-2-methylbenzo[d]oxazole] — lower, 63%
- Cc1nc2cc(F)c(N3CCN(c4ccccc4O)CC3)cc2o1 [Compound 7f, 2-[4-(5-Fluoro-2-methyl-benzooxazol-6-yl)-piperazin-1-yl]-phenol] — higher, 95%

same assay, conditions: Homo sapiens, A549; Lung cancer cells (A-549); 250 µM; 24 h; vs DMSO vehicle

For `Cc1nc2cc(F)c(N3CCN(c4ccccc4O)CC3)cc2o1` [Compound 7f, 2-[4-(5-Fluoro-2-methyl-benzooxazol-6-yl)-piperazin-1-yl]-phenol], the viability at 250 µM was 83%.

same assay, conditions: Homo sapiens, A549; Lung cancer cells (A-549); 500 µM; 24 h; vs DMSO vehicle

`Cc1nc2cc(F)c(N3CCN(c4ccccc4O)CC3)cc2o1` [Compound 7f, 2-[4-(5-Fluoro-2-methyl-benzooxazol-6-yl)-piperazin-1-yl]-phenol] gave a viability at 500 µM of 63%.
